Data on 1 compound can be found in US20190352297A1, “SELECTIVE AURORA A KINASE INHIBITORS” (UNIVERSITAT BERN, priority 2017, published 2019).

“Also recorded” adds a separate entry of the source. Read-outs that look alike come from different tables or passages of the source.

One assay has as its target T1, AuroraB/INCENP complex (Homo sapiens, UniProt Q96GD4).
T1 construct: purchased Millipore 14-835
As to the kind of experiment: HTRF kinase assay, AuroraB/INCENP complex. Format: biochemical. On the procedure:
Aurora A and AuroraB kinases were assayed using the homogeneous time-resolved fluorescence (HTRF) KinEASE STK2 kit from Cisbio (France). […] For both enzymes, the reactions were run for 30 min at room temperature and stopped by the addition of 10 μL of detection buffer containing EDTA, antiphospho-Ser/Thr antibody labelled with europium cryptate, and XL-665 conjugated streptavidin (62.5 nM final concentration). After incubation at room temperature for one hour, fluorescence was measured at 620 nm (europium cryptate) and 665 nm (XL-665) after excitation at 317 nm (lag time 60 μs, integration time 500 μs) using a Tecan Infinite M1000 PRO microplate reader (Greiner 384-well plates, white, non-binding, small volume). The ratio of fluorescence (665 nm/620 nm) was calculated for each well and the results were expressed as follows: specific signal=ratio (sample)−ratio (negative control), where ratio=665 nm/620 nm×10^4. Compounds were measured in threefold serial dilutions at 10 different concentrations, covering the concentration range from no to full inhibition. Each concentration was measured in duplicates, and two independent determinations were made for each IC50 value. IC50 curves were generated using a four-parameter logistic model (XLfit from IDBS).

The subject of the next assay is pThr288 Aurora A. Description: Phosphorylation of Aurora A Thr288 in cells. The format is cell-based, human. The note with it: cells; read-out: cellular IC50 (pT288), phosphorylation of Aurora A Thr288. On the procedure:
(§1) HeLa Kyoto cells were cultured in high-glucose DMEM with GlutaMAX (Life Technologies) media supplemented with 10% fetal calf serum (FCS) in a humidified 5% CO2 incubator at 37° C. For plasmid transfections, cells were seeded at 80-90% confluence. 4 μg of plasmid DNA in 100 μl OptiMEM and 4 μl of Lipofectamine 2000 (Life Technologies) in 100 μl OptiMEM were incubated in parallel for 5 minutes, mixed for 20 minutes and added to each well. All Aurora A clones were constructed using full-length Aurora A as a template with appropriate PCR primer pairs. […] GFP-Aurora AR137A and GFP-Aurora AW277A were engineered using a site directed mutagenesis kit (Agilent Technologies, no. 210515) with appropriate primers. For determining the mitotic index and the chromosome misalignment phenotype, cells were incubated with various concentrations of compounds for 20 h before analysis. Cells were likewise treated with 0.25 μM MLN8237 (Selleckchem, no. S1133) or 5 μM ZM447439 (Selleckchem, no. S1103). For flow cytometry analysis, 50 nM […] and 2.5 μM ZM447439 were used. For rescue experiments, HeLa Kyoto cells were first transfected with GFP-Aurora A, GFP-Aurora AR137A or GFP-Aurora AW277A for 20 h, followed by incubation with 9 for another 20 h before cells were fixed with cold methanol and stained. To assess the impact of compound 9 on cell cycle progression, DNA content was analyzed after propidium iodide staining using FACS (BD Accuri C6 flow cytometer).
For immunofluorescence, cells were fixed in cold methanol, washed in PBT (PBS supplemented with 0.05% Tween-20) and stained with the following primary antibodies: 1:200 rabbit anti-pT288 (Cell Signaling, C39D8), 1:200 rabbit anti-pH3S10 (Cell Signaling, D2C8), 1:500 mouse anti-α-tubulin (Transduction Laboratories, 612709), 1:300 mouse anti-GFP (MAB3580, Millipore), 1:200 anti-TPX2 (Santa Cruz Biotechnology, sc-32863), anti-Aurora A (Invitrogen, 458900). Secondary antibodies were anti-mouse conjugated to Alexa488 or Alexa568, as well as anti-rabbit conjugated to Alexa488 or Alexa568, all used at 1:500 (Invitrogen). […]

Another assay has as its system HeLa Kyoto cells. Description: Chromosome misalignment during metaphase. The format is cell-based, human. The note with it: for misaligned chromosomes: HeLa Kyoto cells. On the procedure:
as §1
(§2) For immunofluorescence, cells were fixed in cold methanol, washed in PBT (PBS supplemented with 0.05% Tween-20) and stained with the following primary antibodies: 1:200 rabbit anti-pT288 (Cell Signaling, C39D8), 1:200 rabbit anti-pH3S10 (Cell Signaling, D2C8), 1:500 mouse anti-α-tubulin (Transduction Laboratories, 612709), 1:300 mouse anti-GFP (MAB3580, Millipore), 1:200 anti-TPX2 (Santa Cruz Biotechnology, sc-32863), anti-Aurora A (Invitrogen, 458900). Secondary antibodies were anti-mouse conjugated to Alexa488 or Alexa568, as well as anti-rabbit conjugated to Alexa488 or Alexa568, all used at 1:500 (Invitrogen). Confocal images were acquired on a Zeiss LSM 710 confocal microscope equipped with a Axiocam MRm (B/VVW) CCD camera using a 63×NA 1.0 oil objective and processed in ImageJ and Adobe Photoshop, maintaining relative image intensities within a series.

The test system of assay [1] is phospho-Histone H3 Ser10 (Aurora B). Description: Phospho-Histone H3 Ser10 in cells (Aurora B activity). The format is cell-based, human. Here is the method: as §1, §2
For the next assay, the target named is T2, Aurora A (Trp277) (Homo sapiens, UniProt O14965).
T2 construct: human Aurora A kinase domain (residues 122-403 in the pET24-d vector); His-tag (cleaved yes); made in house; host or cells: E. coli BL21 (DE3) Rosetta
T2 sequence (O14965 122-403): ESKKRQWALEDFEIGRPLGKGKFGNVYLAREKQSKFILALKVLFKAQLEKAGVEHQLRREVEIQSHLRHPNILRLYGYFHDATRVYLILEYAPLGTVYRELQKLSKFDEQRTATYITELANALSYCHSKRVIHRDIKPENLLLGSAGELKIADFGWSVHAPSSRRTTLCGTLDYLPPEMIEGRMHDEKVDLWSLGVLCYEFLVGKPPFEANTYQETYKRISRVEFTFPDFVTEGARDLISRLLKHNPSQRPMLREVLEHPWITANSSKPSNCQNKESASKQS
Description: Intrinsic tryptophan fluorescence. The format is binding. On the procedure:
Binding experiments were performed by mixing Aurora A (500 nM, 375 nM, and 150 nM for 77, 9, and 88, respectively) with varying concentrations (0-100 μM) of the different compounds in buffer (final DMSO concentration 1%), followed by incubation for 15 min at room temperature. Tryptophan fluorescence spectra were recorded at room temperature using an Infinite M1000 Pro plate reader (Tecan) and Corning 96 well half area, flat bottom, non-binding surface, black polystyrene plates. Excitation occurred at 284 nm (bandwidth ±5 nm) and emission at 340 nm (bandwidth ±10 nm). The gain was calculated from the well with the highest protein concentration. Each measurement was done in triplicate.

T1 sequence (Q96GD4 whole entry): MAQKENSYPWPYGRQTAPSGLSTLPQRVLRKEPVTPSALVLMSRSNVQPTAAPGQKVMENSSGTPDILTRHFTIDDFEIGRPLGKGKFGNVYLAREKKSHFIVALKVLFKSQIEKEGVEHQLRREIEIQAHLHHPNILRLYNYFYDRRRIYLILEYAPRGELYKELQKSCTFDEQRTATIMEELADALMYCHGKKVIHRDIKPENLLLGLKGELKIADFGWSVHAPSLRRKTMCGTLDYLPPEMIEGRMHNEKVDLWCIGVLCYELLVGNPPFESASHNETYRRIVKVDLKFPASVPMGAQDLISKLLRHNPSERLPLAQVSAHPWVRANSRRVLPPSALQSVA
T1 sequence (Q9NQS7 whole entry partner): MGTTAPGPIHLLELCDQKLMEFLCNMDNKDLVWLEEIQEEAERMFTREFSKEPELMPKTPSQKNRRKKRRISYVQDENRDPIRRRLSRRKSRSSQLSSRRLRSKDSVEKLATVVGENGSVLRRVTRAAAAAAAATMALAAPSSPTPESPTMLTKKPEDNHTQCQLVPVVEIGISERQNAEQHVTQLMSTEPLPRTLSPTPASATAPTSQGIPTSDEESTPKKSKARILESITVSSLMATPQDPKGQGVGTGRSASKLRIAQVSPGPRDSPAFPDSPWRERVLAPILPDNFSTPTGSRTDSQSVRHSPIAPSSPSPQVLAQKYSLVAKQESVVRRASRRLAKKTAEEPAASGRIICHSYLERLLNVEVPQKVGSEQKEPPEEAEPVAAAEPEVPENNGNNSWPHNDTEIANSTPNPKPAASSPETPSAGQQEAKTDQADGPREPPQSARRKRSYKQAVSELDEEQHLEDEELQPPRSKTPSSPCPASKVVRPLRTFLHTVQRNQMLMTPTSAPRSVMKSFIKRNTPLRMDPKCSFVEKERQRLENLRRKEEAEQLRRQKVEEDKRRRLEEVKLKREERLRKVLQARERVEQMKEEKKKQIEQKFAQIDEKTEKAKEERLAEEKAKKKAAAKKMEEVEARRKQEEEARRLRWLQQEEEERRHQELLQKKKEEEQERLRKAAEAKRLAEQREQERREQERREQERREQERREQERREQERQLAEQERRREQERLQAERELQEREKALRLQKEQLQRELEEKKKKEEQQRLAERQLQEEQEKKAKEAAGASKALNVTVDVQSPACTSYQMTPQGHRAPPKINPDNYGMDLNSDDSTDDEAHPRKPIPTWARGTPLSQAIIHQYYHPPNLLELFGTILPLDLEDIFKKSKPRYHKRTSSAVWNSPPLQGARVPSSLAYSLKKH

By IC50 is commonly meant the concentration at which inhibition is half-maximal. Usually EC50 stands for the concentration needed to bring the measured effect to its halfway point. For `CCc1ccc(N=C2SC(=Cc3ccnc(Nc4ccc(C(=O)O)cn4)c3)C(=O)N2C)cc1` [Compound 9], the IC50 on AuroraB/INCENP complex (20 μM ATP, HTRF, read-out: IC50 Aurora B in complex with INCENP (biochemical)) was 149 ± 3 nM; in the assay on pThr288 Aurora A, 760 nM; in assay [1] (Aurora B/INCENP, cells, read-out: cellular IC50 (pH3)), > 25000 nM. Further, the “weaker inhibition of Aurora B/INCENP compared to KD measured with free Aurora B” value at AuroraB/INCENP complex (IC50 Aurora B/INCENP versus KD free Aurora B) is on record as 15 fold. In addition, the results for the misaligned chromosomes with HeLa Kyoto cells (4 μM), in the assay on HeLa Kyoto cells (10 μM) and in the assay on HeLa Kyoto cells (25 μM) were ~20%, ~80% and ~85%, respectively. The EC50 was > 1000 nM with HeLa Kyoto cells (cellular activity as summarised in text, read-out: cellular activity EC50) and 6000 nM with HeLa Kyoto cells (read-out: phenotypic EC50, defective chromosome alignment during metaphase). In addition, the “effect on Aurora B activity in cells” value in assay [1] is on record as “no effect; also recorded: without impairing Aurora B function”. In addition, the “distribution of phospho-Histone H3 Ser10” value in assay [1] (treated cells) is reported as “remained unchanged”. Besides, the “tryptophan fluorescence, environment of Trp277” value on Aurora A (Trp277) was “perturbed the environment of Trp277”.
